Measured values: US10307413B2, “Tetrahydro- and dihydro-isoquinoline PRMT5 inhibitors and uses thereof” (Epizyme, Inc., priority 2013, dated 2019)

How the values were obtained:
[1] = tested on: symmetric di-methyl arginine in Z-138 cells; assay: Z-138 Methylation Assay (In Cell Western for symmetric di-methyl arginine and DNA content); assay type: cell-based; details: Homo sapiens, read-out: ICW EC50
Procedure, shortened: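 Z-138 cells (50,000 cells/mL) treated with compound 96 h at 37 °C, then fixed and stained for symmetric di-methyl arginine (800 nm) with DRAQ5 DNA counterstain (700 nm) on Licor Odyssey.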

Z-138 cell line = assay: Z-138 Proliferation Assay (Cell Titer Glo, 5 days); assay type: cell-based; details: Homo sapiens, 120 h; Z-138 cells, 5 days; read-out: Proliferation EC50
Procedure, shortened: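 Z-138 cells exposed 5 days at 37 °C, 5% CO2 to nine-point 3-fold dilutions (final top 20 μM, 0.2% DMSO), in triplicate. Viability read as ATP by CellTiter-Glo luminescence; IC50 from 4-parameter fit of normalized dose-response curves.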

| Structure (SMILES) | EC50 [1] [µM] | EC50 (Z-138 cell line) [µM] |
| --- | --- | --- |
| NC(=O)CN1CCN(Cc2cccc(C(=O)NCC(O)CN3CCc4ccccc4C3)c2)CC1 (stereo not shown) [Compound 172] | < 0.1 | 1 to 10 |
| CNC(=O)CN1CCN(Cc2cccc(C(=O)NCC(O)CN3CCc4ccccc4C3)c2)CC1 (stereo not shown) [Compound 173] | < 0.1 | 1 to 10 |
| CN(C)C(=O)CN1CCN(Cc2cccc(C(=O)NCC(O)CN3CCc4ccccc4C3)c2)CC1 (stereo not shown) [Compound 174] | < 0.1 | 1 to 10 |
| CNC(=O)CCCN1CCN(Cc2cccc(C(=O)NCC(O)CN3CCc4ccccc4C3)c2)CC1 (stereo not shown) [Compound 175] | 0.101 to 1 | 1 to 10 |
| O=C(NCC(O)CN1CCc2ccccc2C1)c1ccc(OC2CCNC2)cc1 (stereo not shown) [Compound 176] | < 0.1 | 1 to 10 |
| CN1CCC(Oc2ccc(C(=O)NCC(O)CN3CCc4ccccc4C3)cc2)C1 (stereo not shown) [Compound 177] | < 0.1 | 1 to 10 |
| CN(C)CCCOc1ccc(C(=O)NCC(O)CN2CCc3ccccc3C2)cc1 (stereo not shown) [Compound 178] | < 0.1 | 1 to 10 |
| O=C(NCC(O)CN1CCc2ccccc2C1)c1ccc(N2CCS(=O)(=O)CC2)cc1 (stereo not shown) [Compound 179] | < 0.1 | 1 to 10 |
| O=C(NC[C@H](O)CN1CCc2ccccc2C1)c1cc(NC2CCNCC2)ncn1 [Compound 180] | 0.101 to 1 | 10 to 50 |
| CN1CCC(Nc2cc(C(=O)NC[C@H](O)CN3CCc4ccccc4C3)ncn2)C1 (stereo partly shown) [Compound 181] | 0.101 to 1 | 1 to 10 |
| O=C(NC[C@H](O)CN1CCc2ccccc2C1)c1cc(NC2CCN(CC(F)(F)F)C2)ncn1 (stereo partly shown) [Compound 182] | < 0.1 | 1 to 10 |
| O=C(NC[C@H](O)CN1CCc2ccccc2C1)c1cncc(OC2CCOCC2)c1 [Compound 183] | < 0.1 | 1 to 10 |
| O=C(NC[C@@H](O)CN1CCc2ccccc2C1)c1ccnc(NC2CCOCC2)c1 [Compound 184] | < 0.1 | 1 to 10 |
| O=C(NC[C@@H](O)CN1CCc2ccccc2C1)c1cc(NC2CCOCC2)ncn1 [Compound 185] | 0.101 to 1 | 1 to 10 |
| CN(C)CCN(C)c1cc(C(=O)NC[C@H](O)CN2CCc3ccccc3C2)ccn1 [Compound 186] | < 0.1 | 1 to 10 |
| O=C(NC[C@H](O)CN1CCc2ccccc2C1)c1ccnc(NCC2CC2)c1 [Compound 187] | < 0.1 | 0.101 to 1 |
| O=C(NC[C@H](O)CN1CCc2ccccc2C1)c1ccnc(NC2CCC2)c1 [Compound 188] | < 0.1 | < 0.1 |
| O=C(NC[C@H](O)CN1CCc2ccccc2C1)c1ccnc(NCc2ccncc2)c1 [Compound 189] | < 0.1 | 0.101 to 1 |
| O=C(NC[C@H](O)CN1CCc2ccccc2C1)c1ccnc(NCc2cccnc2)c1 [Compound 190] | < 0.1 | 0.101 to 1 |
| O=C(NC[C@H](O)CN1CCc2ccccc2C1)c1ccnc(NCc2ccccn2)c1 [Compound 191] | < 0.1 | 0.101 to 1 |
| O=C(NC[C@H](O)CN1CCc2ccccc2C1)c1ccnc(NC2CCOCC2)c1 [Compound 192] | < 0.1 | 0.101 to 1 |

| Structure (SMILES) | EC50 [1] [µM] | EC50 (Z-138 cell line) [µM] |
| --- | --- | --- |
| O=C(NC[C@H](O)CN1CCc2ccccc2C1)c1cc(NC2CCOCC2)ncn1 [Compound 193] | < 0.1 | 0.101 to 1 |
| CN(C)C(=O)CCCN1CCN(Cc2cccc(C(=O)NCC(O)CN3CCc4ccccc4C3)c2)CC1 (stereo not shown) [Compound 194] | 0.101 to 1 | 1 to 10 |
| CN(CC(N)=O)Cc1cccc(C(=O)NCC(O)CN2CCc3ccccc3C2)c1 (stereo not shown) [Compound 195] | 0.101 to 1 | 10 to 50 |
| CC(C)N1CCC(Oc2ccc(C(=O)NCC(O)CN3CCc4ccccc4C3)cc2)C1 (stereo not shown) [Compound 196] | < 0.1 | 1 to 10 |
| CC(=O)N1CCC(Oc2ccc(C(=O)NCC(O)CN3CCc4ccccc4C3)cc2)C1 (stereo not shown) [Compound 197] | < 0.1 | 0.101 to 1 |
| CS(=O)(=O)N1CCC(Oc2ccc(C(=O)NCC(O)CN3CCc4ccccc4C3)cc2)C1 (stereo not shown) [Compound 198] | < 0.1 | 0.101 to 1 |
| O=C(NCC(O)CN1CCc2ccccc2C1)c1ccc(OC2CCN(CC(F)(F)F)C2)cc1 (stereo not shown) [Compound 199] | < 0.1 | 1 to 10 |
| O=C(NC[C@H](O)CN1CCc2ccccc2C1)c1ccnc(NC2CCNCC2)c1 [Compound 200] | 0.101 to 1 | 10 to 50 |
| O=C(NC[C@H](O)CN1CCc2ccccc2C1)c1ccnc(NC2CCNC2)c1 (stereo partly shown) [Compound 201] | 0.101 to 1 | 1 to 10 |
| CN1CCC(Oc2cc(C(=O)NC[C@H](O)CN3CCc4ccccc4C3)ccn2)CC1 [Compound 202] | < 0.1 | 1 to 10 |
| O=C(NC[C@H](O)CN1CCc2ccccc2C1)c1ccnc(OC2CCN(CC(F)(F)F)CC2)c1 [Compound 203] | < 0.1 | 0.101 to 1 |
| CS(=O)(=O)N1CCC(Oc2cc(C(=O)NC[C@H](O)CN3CCc4ccccc4C3)ccn2)CC1 [Compound 204] | < 0.1 | 0.101 to 1 |
| CC(=O)N1CCC(Oc2cc(C(=O)NC[C@H](O)CN3CCc4ccccc4C3)ccn2)CC1 [Compound 205] | < 0.1 | 0.101 to 1 |
| CC(=O)N1CCC(Nc2cc(C(=O)NC[C@H](O)CN3CCc4ccccc4C3)ncn2)CC1 [Compound 208, (S)-6-((1-acetylpiperidin-4-yl)amino)-N-(3-(3,4-dihydroisoquinolin-2(1H)-yl)-2-hydroxypropyl)pyrimidine-4-carboxamide] | < 0.1 | < 0.1 |
| O=C(NC[C@H](O)CN1CCc2ccccc2C1)c1cc(NC2CCNC2)ncn1 (stereo partly shown) [Compound 209] | < 0.1 | 10 to 50 |
| CC(=O)N1CCC(Nc2cc(C(=O)NC[C@H](O)CN3CCc4ccccc4C3)ncn2)C1 (stereo partly shown) [Compound 210] | < 0.1 | 0.101 to 1 |
| O=C(NC[C@H](O)CN1CCc2ccccc2C1)c1cncc(NC2CCOC2)c1 (stereo partly shown) [Compound 211] | < 0.1 | < 0.1 |
| C[C@@H]1COCCC1Nc1cccc(C(=O)NC[C@H](O)CN2CCc3ccccc3C2)c1 (stereo partly shown) [Compound 212] | < 0.1 | 0.101 to 1 |
| C[C@H]1COCCC1Nc1cccc(C(=O)NC[C@H](O)CN2CCc3ccccc3C2)c1 (stereo partly shown) [Compound 213] | < 0.1 | 0.101 to 1 |
| CN(C)CCNc1cc(C(=O)NC[C@H](O)CN2CCc3ccccc3C2)ccn1 [Compound 214] | < 0.1 | 1 to 10 |
| CC(=O)N1CCC(Nc2cccc(C(=O)NC[C@H](O)CN3CCc4ccccc4C3)c2)CC1 [Compound 215] | < 0.1 | < 0.1 |

| Structure (SMILES) | EC50 [1] [µM] | EC50 (Z-138 cell line) [µM] |
| --- | --- | --- |
| CS(=O)(=O)N1CCC(Nc2cccc(C(=O)NC[C@H](O)CN3CCc4ccccc4C3)c2)CC1 [Compound 216] | < 0.1 | 0.101 to 1 |
| O=C(NC[C@H](O)CN1CCc2ccccc2C1)c1cccc(NC2CCN(CC(F)(F)F)CC2)c1 [Compound 217] | < 0.1 | 0.101 to 1 |
| O=C(NC[C@@H](O)CN1CCc2ccccc2C1)c1ccc2ncccc2c1 [Compound 218] | 0.101 to 1 | 10 to 50 |
| Cc1ccc2cc(C(=O)NC[C@@H](O)CN3CCc4ccccc4C3)ccc2n1 [Compound 219, (R)—N-(3-(3,4-dihydroisoquinolin-2(1H)-yl)-2-hydroxypropyl)-2-methylquinoline-6-carboxamide] | 0.101 to 1 | 10 to 50 |
| O=C(NC[C@H](O)CN1CCc2ccccc2C1)c1ccc2ncccc2c1 [Compound 220] | < 0.1 | 0.101 to 1 |
| Cc1ccc2cc(C(=O)NC[C@H](O)CN3CCc4ccccc4C3)ccc2n1 [Compound 221, (S)—N-(3-(3,4-dihydroisoquinolin-2(1H)-yl)-2-hydroxypropyl)-2-methylquinoline-6-carboxamide] | < 0.1 | 0.101 to 1 |
| NC(=O)CNCCOc1cccc(C(=O)NCC(O)CN2CCc3ccccc3C2)c1 (stereo not shown) [Compound 222] | 0.101 to 1 | > 20 |
| CN1CCC(Nc2cc(C(=O)NC[C@H](O)CN3CCc4ccccc4C3)ccn2)CC1 [Compound 223] | < 0.1 | 1 to 10 |
| O=C(NC[C@H](O)CN1CCc2ccccc2C1)c1ccnc(NC2CCN(CC(F)(F)F)CC2)c1 [Compound 224] | < 0.1 | 0.101 to 1 |
| CS(=O)(=O)N1CCC(Nc2cc(C(=O)NC[C@H](O)CN3CCc4ccccc4C3)ccn2)CC1 [Compound 225] | < 0.1 | < 0.1 |
| O=C(NC[C@H](O)CN1CCc2ccccc2C1)c1ccnc(NC2CCN(CC(F)(F)F)C2)c1 (stereo partly shown) [Compound 226] | < 0.1 | 0.101 to 1 |
| CS(=O)(=O)N1CCC(Nc2cc(C(=O)NC[C@H](O)CN3CCc4ccccc4C3)ccn2)C1 (stereo partly shown) [Compound 227] | < 0.1 | 0.101 to 1 |
| CC(=O)N1CCC(Nc2cc(C(=O)NC[C@H](O)CN3CCc4ccccc4C3)ccn2)C1 (stereo partly shown) [Compound 228] | < 0.1 | 0.101 to 1 |
| O=C(NC[C@H](O)CN1CCc2ccccc2C1)c1ccnc(OC2CCNCC2)c1 [Compound 229] | < 0.1 | 1 to 10 |
| O=C(NC[C@H](O)CN1CCc2ccccc2C1)c1cc(NC2CCOC2)ncn1 (stereo partly shown) [Compound 230] | < 0.1 | 0.101 to 1 |
| Cc1c(NC2CCOCC2)ncnc1C(=O)NC[C@H](O)CN1CCc2ccccc2C1 [Compound 231] | < 0.1 | 1 to 10 |
| CN(C[C@H](O)CN1CCc2ccccc2C1)C(=O)c1cc(NC2CCOCC2)ncn1 [Compound 232] | 0.101 to 1 | 1 to 10 |
| CNCCN(C)c1cc(C(=O)NC[C@H](O)CN2CCc3ccccc3C2)ccn1 [Compound 233] | 0.101 to 1 | 1 to 10 |
| CN(C)CCOc1cc(C(=O)NC[C@H](O)CN2CCc3ccccc3C2)ccn1 [Compound 234] | < 0.1 | 1 to 10 |
| O=C(NC[C@H](O)CN1CCc2ccccc2C1)c1ccnc(NCC2CCNCC2)c1 [Compound 235] | 0.101 to 1 | > 20 |
